Entries after “also recorded” stand apart in the source; their conditions may differ.
Target: T1, heterotrimeric UNC-63, UNC-29, LEV-1 receptor (Caenorhabditis elegans, UniProt P48181+Q27218+Q9N587)
T1 construct: used to generate a full length cDNA clone by 3′ RACE on Marathon cDNA; expressed in transfected cells; host or cells: Xenopus laevis oocytes (nuclear injection of pMT3 cDNA constructs)
Assay: Two-electrode voltage-clamp of recombinant nAChR expressed in Xenopus laevis oocytes
Assay type: cell-based, C. elegans
Details: for agonist activity on the expressed receptor: holding potential -100 mV
Protocol: Ovaries were surgically removed from anaesthetised mature female Xenopus laevis. The follicle layers were manually removed from healthy stage V and VI oocytes following a 15 min incubation with collagenase (type IA, 2 mg ml^−1) in a calcium-free version of standard oocyte saline. The composition of SOS was as follows (mM): NaCl 100, KCl 2, CaCl2 1.8, MgCl2 1 and HEPES 5; pH 7.6. In calcium-free saline, the CaCl2 was replaced by 1.8 mM BaCl2. […] The nucleus of each oocyte was injected with 20 nl of DNA (0.1 μg μl^−1). The injected oocytes were transferred to incubation medium composed of SOS supplemented with penicillin (100 units ml^−1), streptomycin (100 μg ml^−1), gentamycin (50 μg ml^−1) and 2.5 mM sodium pyruvate and placed at 4° C. for 30 min immediately after injection to enable recovery. Oocytes were maintained at 16° C. for 2-4 days prior to electrophysiological studies.
Oocytes were restrained with entomological pins in a Perspex chamber (80 μl volume) with a Sylgard base and perfused continuously (5 ml min^−1) with SOS using a gravity-fed system. Membrane currents were measured by the two-electrode voltage-clamp method, using 3M KCl filled electrodes (resistance=0.5-5 MΩ) and either a Geneclamp amplifier (Axon Instruments). The oocyte membrane potential was clamped at −100 mV. Signals were digitized by a TL-1 interface (Axon Instruments, U.S.A).

T1 sequence (P48181 27-493): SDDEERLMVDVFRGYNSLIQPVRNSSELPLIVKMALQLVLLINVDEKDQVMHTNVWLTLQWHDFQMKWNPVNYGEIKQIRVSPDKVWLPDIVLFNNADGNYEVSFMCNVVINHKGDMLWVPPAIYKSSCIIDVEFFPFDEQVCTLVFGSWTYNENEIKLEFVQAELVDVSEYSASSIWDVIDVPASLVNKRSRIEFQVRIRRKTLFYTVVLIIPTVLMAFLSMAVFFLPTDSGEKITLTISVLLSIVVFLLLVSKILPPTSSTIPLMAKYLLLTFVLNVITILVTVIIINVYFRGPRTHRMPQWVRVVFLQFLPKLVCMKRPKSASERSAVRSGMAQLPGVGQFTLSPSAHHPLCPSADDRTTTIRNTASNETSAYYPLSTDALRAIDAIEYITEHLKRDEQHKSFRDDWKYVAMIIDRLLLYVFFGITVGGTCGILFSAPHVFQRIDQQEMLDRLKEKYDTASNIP
T1 sequence (Q27218 32-507): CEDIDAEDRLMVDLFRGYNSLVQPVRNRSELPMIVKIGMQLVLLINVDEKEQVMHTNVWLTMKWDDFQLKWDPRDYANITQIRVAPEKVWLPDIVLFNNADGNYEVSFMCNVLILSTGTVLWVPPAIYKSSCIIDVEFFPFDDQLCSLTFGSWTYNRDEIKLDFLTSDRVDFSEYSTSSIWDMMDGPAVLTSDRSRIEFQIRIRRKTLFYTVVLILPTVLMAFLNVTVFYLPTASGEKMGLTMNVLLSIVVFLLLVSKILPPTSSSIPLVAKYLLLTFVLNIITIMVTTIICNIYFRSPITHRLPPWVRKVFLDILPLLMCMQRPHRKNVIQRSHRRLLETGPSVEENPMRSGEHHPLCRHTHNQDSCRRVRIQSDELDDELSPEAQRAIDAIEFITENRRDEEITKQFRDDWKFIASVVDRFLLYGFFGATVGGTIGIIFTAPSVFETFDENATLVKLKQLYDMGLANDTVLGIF
T1 sequence (Q9N587 24-502): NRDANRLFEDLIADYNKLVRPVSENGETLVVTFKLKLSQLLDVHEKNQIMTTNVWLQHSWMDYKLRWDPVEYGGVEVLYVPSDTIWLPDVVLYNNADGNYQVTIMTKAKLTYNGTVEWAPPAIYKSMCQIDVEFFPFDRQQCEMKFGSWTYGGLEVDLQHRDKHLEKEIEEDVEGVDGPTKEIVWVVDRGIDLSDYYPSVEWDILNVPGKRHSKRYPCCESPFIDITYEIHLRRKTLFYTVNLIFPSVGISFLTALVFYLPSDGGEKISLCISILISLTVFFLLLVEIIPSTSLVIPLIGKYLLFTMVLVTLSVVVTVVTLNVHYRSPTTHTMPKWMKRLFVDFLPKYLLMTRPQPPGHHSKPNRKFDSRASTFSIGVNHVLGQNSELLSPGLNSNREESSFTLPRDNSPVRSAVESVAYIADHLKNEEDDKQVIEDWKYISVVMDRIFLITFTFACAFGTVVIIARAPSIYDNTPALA

Structure (SMILES) | agonist activity on the expressed receptor (Xenopus oocytes) | block of the agonist action of levamisole (10 μM mecamylamine, Xenopus oocytes (FIG. 6)) | antagonism of ACh-induced currents (10 μM, Xenopus oocytes)
CC(=O)OCC[N+](C)(C)C.[Cl-] [ACh, Acetylcholine chloride] | full agonist |  | 
CNC1(C)C2CCC(C2)C1(C)C (centres unmarked) [Mecamylamine, mecamylamine] |  | blocked | effective antagonist
c1ccc([C@H]2CN3CCSC3=N2)cc1 [levamisole] | partial agonists; also recorded: partial agonist activity |  | 
CN1CCCC1c1cccnc1 (centres unmarked) [nicotine] | partial agonists; also recorded: partial agonist activity |  | 

Reference: patent publication US20040224910A1, “Recombinant nematode nicotinic receptor and uses” (priority 1999, published 2004)
